The values that follow come from patent US20100278849A1, “PROSTATIC ACID PHOSPHATASE ANTIGENS” (priority 2004, published 2010).

The test system of assay [1] is HLA-DRβ1*0401. Put plainly: Proliferation of splenocytes from immunised HLA-DR4 mice with peptide-pulsed BM-DC (tritiated thymidine). It is filed as cell-based. Here is the method: (§1) HLA-A2.1/K^b mice were immunised with an emulsion consisting of 100 μg of the putative class-I peptide epitope and 100 μg of non-specific class-II peptide derived from hepatitis B virus in 50% incomplete Freund's adjuvant (IFA). HLA-DR4- and HLA-DR1-transgenic mice were immunised twice at one week interval with 100 μg of class-II peptide emulsified in 50% incomplete Freund's adjuvant (IFA) and 50% PBS. All vaccine were delivered as a 100 μl intradermal bolus inoculum at the base of the tail.
(§2) 0DC were generated using a method adapted from Inaba et al (Inaba et al. 1992). Briefly, femurs and tibias were harvested aseptically from non-immunised DR1 or DR4 transgenic mice and placed in sterile PBS supplemented with 50 IU/ml penicillin, 50 μg/ml streptomycin, and 0.25 μg/ml fungizone. The marrow was flushed out of the bone using BM-DC media (RPMI 1640 medium supplemented with 2 mM glutamine, 5% FCS, 10 mM Hepes, 501M 2-ME, 50 μg/ml penicillin, 50 μg/ml streptomycin, 0.25 μg/ml fungisone and 10% of supernatant collected from X-63 cells). The cells were washed once in BM-DC media and plated in 24-well plates at 10^6/well in 1 ml DC media and incubated at 37° C. in a 5% CO2 humidified atmosphere. On days 2 and 4, the non-adherent cells (T cells, B cells, granulocytes) were removed, and the remaining cells were cultured in fresh DC medium. After 7-9 days, clusters of loosely adherent DC were dislodged and collected by gently pipetting, before being washed and seeded in 24-well plates at 0.5×10^6 cells/well in 1 ml DC media. Peptides were added at 1 μg/well and the plates were incubated at 37° C. 1 μg/ml of LPS was added after 5 hours, and the plates were incubated overnight at 37° C. in a 5% CO2 in air-humidified atmosphere.
(§3) After 6 days, the spleens from immunised animals were collected and the cells flushed out using T cell media (RPMI+10% FCS+20 mM HEPES buffer+50 μM 2-mercaptoethanol+50 U/ml penicillin/streptomycin+0.25 μg/ml fungizone). The remaining splenic tissue was digested using an enzyme cocktail (0.1 U/ml DNAase (Sigma)+1.6 mg/ml collagenase (Sigma)) for 1 hour at 37° C. The cell suspension obtained was pooled with the flushed cells, washed once, and the splenocytes were plated in 24 well plates with 10 μg/ml of peptide at a density of 2.5×10^6/ml for FVB/N-DR1 or 3.5×10^6/ml for C57BL/6-DR4. Cells were also cultured with an irrelevant peptide as a control. To measure cytokine production, culture supernatants were collected on day 2 and 5 of the culture for the measurement of cytokine by ELISA.
[…] CD8+ T cells were depleted from the cell suspension using anti-CD8+ antibody coupled with magnetic beads (Dynal, UK) as per the manufacturers instructions. Cells were then washed in PBS and resuspended at 5×10^5/ml in T cell medium. 100 μl of T cells was then added to all wells. Anti-DR antibody (L243) or isotype control were added to some wells to confirm the MHC specificity of the T-cell response. LPS-treated dendritic cells were harvested, washed and incubated in 1 ml of DC medium with the addition of 10 íg of peptide at 37° C. for 5 hours. After washing, 10^3 peptide-pulsed DC were added to the relevant wells of lymphocyte cultures in 50 íl media. These plates were then incubated for 3 days at 37° C. in a 5% CO2 in air-humidified atmosphere. Tritriated thymidine was then added to the culture and incubated again for 18 hours. Plates were harvested onto 96 Uni/Filter (Packard), the scintillation liquid (Microscint 0, Packard) was added and the plates were counted on a Top-Count counter (Packard). Results are expressed in counts per minute (cpm) and as a means of the triplicate wells. Statistical analysis was performed using unpaired Student's t test. […]

Assay [2] deals with HLA-DRβ1*0101. In words: Proliferation of splenocytes from immunised HLA-DR1 mice with peptide-pulsed BM-DC (tritiated thymidine). It is filed as cell-based. The settings on record: responding/total mice, after re-stimulation in vitro with relevant peptide. As for the experimental part:
as §1, §2, §3
Splenocytes from immunised animals cultured for 6 days in the presence of 10 μg of the test peptide were harvested, washed and counted. CD8+ T cells were depleted from the cell suspension using anti-CD8+ antibody coupled with magnetic beads (Dynal, UK) as per the manufacturers instructions. Cells were then washed in PBS and resuspended at 5×10^5/ml in T cell medium. 100 μl of T cells was then added to all wells. Anti-DR antibody (L243) or isotype control were added to some wells to confirm the MHC specificity of the T-cell response. LPS-treated dendritic cells were harvested, washed and incubated in 1 ml of DC medium with the addition of 10 íg of peptide at 37° C. for 5 hours. After washing, 10^3 peptide-pulsed DC were added to the relevant wells of lymphocyte cultures in 50 íl media. […] Plates were harvested onto 96 Uni/Filter (Packard), the scintillation liquid (Microscint 0, Packard) was added and the plates were counted on a Top-Count counter (Packard). […]

Assay [3] concerns IFN-γ. Put plainly: Cytokine production by splenocytes of immunised C57BL/6-DR4 mice, ELISA. It is filed as cell-based. The settings on record: relevant versus irrelevant peptide. Here is the method:
as §3
(§4) Aliquots of supernatants were removed from CTL cultures on days 1 and 5 and on days 2 and 5 from CD4′ T cell cultures and stored at −20° C. until required. ELISA was used to quantitate concentrations of murine IFN-γ and IL-5 (R&D systems, UK).
We further investigated HLA-DR class-II restricted responses to PAP peptides that were predicted to bind to HLA-DR1 and HLA-DR4 according to the evidence-based computer assisted algorithm […]. The peptides displaying high binding scores for both HLA-DR alleles were selected and further studied (Table 1). C57BL/6-DR4 mice were immunised with these predicted HLA-DR-restricted PAP and the proliferative and IFN-γ response to peptide stimulation in vitro was monitored by proliferation assays and cytokine measurements. PAP. 64 and PAP.
In general terms: ELISA stands for enzyme-linked immunosorbent assay.

For assay [4], the system named is IFN-γ. Put plainly: IFN-γ ELISPOT of rested CD8-depleted T cells with peptide-pulsed BM-DC. The class given is cell-based, mice. The settings on record: BM-DC pulsed with PAP.161 versus Flu peptide.
The subject of assay [5] is IFN-γ. Put plainly: Cytokine production by splenocytes of immunised FVB/N-DR1 mice, ELISA. The class given is cell-based. Here is the method: as §3, §4
For assay [6], the target named is HLA-A2*0201 (Homo sapiens, UniProt P04439, D140Y/D185E/D98H/E176V/E277Q/G131W/G231S/I119V/I121R/I166T/I218V/L300P/L318F/N151K/N90K/P208A/P217A/Q86G/Q94H/R138H/R169H/T345S). It is filed as cell-based. The settings on record: peptide at 100, 10 and 1 μM; compared with positive control influenza M1 peptide; three independent experiments.
In assay [7] the test system is RMAS-HLA-A2 cells. In words: 51Chromium cytotoxicity assay of splenocytes from HLA-A2.1/Kb mice against peptide-pulsed RMAS cells. The class given is cell-based. The settings on record: for % cytoxicity at 50:1 ratio RMAS + irrel.: targets pulsed with irrelevant peptide.
In assay [8] the test system is LNCaP cells. In words: 51Chromium cytotoxicity assay of splenocytes from PAP.135 immunised mice against LNCaP cells. The settings on record: LNCaP express HLA-A2 and PAP. The class given is cell-based, human. As for the experimental part:
(c): Cytotoxicity against LNCaP cells by splenocytes derived from PAP.135 immunised mice. Results are representative of 10 mice and 2 individual experiments.
(§5) LNCaP is a human prostate cancer cell-line known to express HLA-A2 and PAP. Cells were propagated in RPMI 1640 media (GibcoBRL, UK) supplemented with 10% foetal calf serum (BioWhittaker, Belgium), 100 U/ml penicillin with 100 μg/ml streptomycin (GibcoBRL, UK), 5 ng/ml hydrocortisone and 5 ng/ml testosterone (Sigma, USA). […] Cells were grown in suspension in tissue culture flasks containing RPMI 1640 (GibcoBRL, UK) with 10% foetal calf serum (FCS) (BioWhittaker, Belgium) and 1% L-glutamine supplement (GibcoBRL, UK).
Target cells were pulsed overnight with test peptide or an irrelevant HLA-A2 binding epitope and labelled for 1 hour with 1.85 MBq ^51Chromium. For cytotoxicity assays involving tumour cell-lines, cells were treated with 100 U/ml IFN-γ for 24 hours prior to ^51Chromium labelling. Target cells were washed and allowed to stand in CTL media for 1 hour before washing again. […] HLA-A2 dependence was determined by the addition of anti-HLA-A2 antibody (Serotec, UK) to some wells. […] Supernatants were harvested and analysed using a Top Count™ gamma counter (Can berra-Packard, USA). Specific lysis was determined as follows: […]

Assay [9] relates to LCL cells. Put plainly: 51Chromium cytotoxicity assay of splenocytes from PAP.135 immunised mice against LCL cells. It is filed as cell-based, human. The settings on record: LCL express HLA-A2 but not PAP. Here is the method: as §5
Target cells were pulsed overnight with test peptide or an irrelevant HLA-A2 binding epitope and labelled for 1 hour with 1.85 MBq ^51Chromium. For cytotoxicity assays involving tumour cell-lines, cells were treated with 100 U/ml IFN-γ for 24 hours prior to ^51Chromium labelling. Target cells were washed and allowed to stand in CTL media for 1 hour before washing again. Target cells and effector CTLs were co-incubated at various ratios in 96-well plates in a final volume of 200 μl for 4 hours at 37° C. HLA-A2 dependence was determined by the addition of anti-HLA-A2 antibody (Serotec, UK) to some wells. Maximum and spontaneous release of ^51Chromium was ascertained by incubating target cells with 2% SDS or media alone, respectively. Supernatants were harvested and analysed using a Top Count™ gamma counter (Can berra-Packard, USA). Specific lysis was determined as follows: […]

For assay [10], the system named is IFN-γ. In words: IFN-γ release by splenocyte (CTL) cultures, ELISA. The class given is cell-based, mice. As for the experimental part: After at least 7 and not more than 10 days, immunised animals were killed, and the spleens recovered into transport media. Spleens were gently macerated and flushed by injecting 10 ml “CTL culture media” (RPMI 1640, 1% L-glutamine, 10% FCS (PAA labs), 20 mM Hepes, 50 μM 2-mercaptoethanol, 50 U/ml penicillin, 500 U/ml streptomycin and 0.25 μg/ml fungizone) under pressure through a fine bore hypodermic needle introduced through the spleen capsule, thus facilitating the isolation of splenocytes. The remaining tissue was diced and digested for 1 hour at 37° C. using an enzyme cocktail (IMDM containing […] 2-ME, 100 U/ml penicillin+1000 U/ml streptomycin, 8 mg/ml collagenase and 1% DNAse). The flushed and digested cell populations were washed and pooled, and then seeded into 15 wells of a 24 well-plate at 5×10^6 cells/well in 2 ml of media containing 20 μg peptide. The test peptide was added to 12 wells, while 3 wells received an irrelevant class-I peptide as a control. Splenocyte cultures were incubated for 5 days at 37° C.
as §4
Figures represent the ratio of IFN-γ released by splenocytes stimulated in vitro by PAP.135 to IFN-γ released by splenocytes stimulated in vitro by an irrelevant HLA-A2*0201 CTL epitope. The mean results of 10 experiments using splenocytes derived from PAP.135-immunised mice are given, and 1 in which splenocytes derived from non-immunised (naive mice) were used.

Where “and” joins values, the source holds several entries; their conditions need not be identical. Equal values may be shown once. Entries after “also recorded” stand apart in the source; their conditions may differ.

For the sequence “CPRFQELESETLKSE (listed as Homo sapiens) [PAP.161]”, the “proliferative response to peptide-pulsed BM-DC” value in [1] (7 days in vitro stimulation, CD8+ T cells removed, rested 7 days) was “Significant proliferation; also recorded: consistently confirmed; also recorded: responded specifically”. Moreover, the “effect of anti-HLA-DR antibody (L243) on proliferation” value in assay [1] (not blocked by isotype control) was “blocked in the presence of HLA-DR antibody; also recorded: blocked by the addition of L243 antibody; also recorded: inhibited by the addition of L243 antibody; also recorded: blocked by the presence of L243 antibody”. Besides, the “proliferation of splenocytes from immunised HLA-DR4 mice” value in [1] (re-stimulated in vitro with peptide for 5 days) is “Specific proliferation”. For the same sequence, the “number of HLA-DR4 mice whose splenocytes demonstrated specific proliferation” value in [1] (responding/total mice, after re-stimulation in vitro with relevant peptide) was 6 out of 8 and 4/6. Moreover, the “number of HLA-DR1 mice whose splenocytes demonstrated specific proliferation” value in [2] is 3 out of 6 and 3/6. Besides, the “IFN-γ production by splenocytes” value in [3] is “produced in large quantities”. Besides, the “IFN-γ production, ELISPOT” value in assay [4] is given as “high amount of IFN-γ in peptide specific manner; also recorded: producing IFN-γ”. Also, in assay [5], the “IFN-γ or IL-50 (cytokine) production of splenocytes” value is on record as “no production of cytokines could be detected in high enough levels”.
For the sequence “ILLWQPIPV (listed as Homo sapiens) [PAP.135]”, the “binding to HLA-A2 (T2 cells)” value in assay [6] is given as “strong binding; also recorded: strongest HLA-A2 binding; also recorded: higher affinity to T2 cells”. The “inhibition of peptide specific lysis by HLA-A2 blocking antibody” value in assay [7] (PAP.135-pulsed targets, splenocytes from PAP.135 immunised mice, two separate experiments) is “approximately 80%”. The “lysis of PAP.135 pulsed RMAS-HLA-A2 cells” value in assay [7] (splenocytes from PAP.135 immunised mice) is on record as “lysed RMAS-HLA-A2 cells, pulsed with PAP.135 in a dose dependent manner; also recorded: highly cytotoxic”; in assay [7] (splenocytes from non-immunised (naïve) mice stimulated by PAP.135 in vitro) it was “failed to demonstrate cytotoxicity; also recorded: unable to lyse target cells”. The “% cytoxicity at 50:1 ratio RMAS + irrel.” value in [7] (splenocytes from PAP.135-immunised mice, 50:1) was 2% and 7% and 9% and 4% and 1% and 5% and 3%; in assay [7] (splenocytes from naïve (non-immunised) mouse, 50:1), 11%. Also, the “% cytoxicity at 50:1 ratio RMAS + PAP.135” value in [7] (splenocytes from naïve (non-immunised) mouse stimulated with PAP.135 in vitro, 50:1) was 13%. In addition, the “lysis of LNCaP cells” value in assay [8] is given as “dose-dependent lysis; also recorded: highly cytotoxic”. Further, the “lysis of LCL cells” value in [9] was “not susceptible to lysis”. The “IFN-γ release by splenocytes stimulated in vitro” value in [10] (PAP.135-immunised mice, versus irrelevant epitope, day 5) is listed as “significantly more IFN-γ; also recorded: significantly upregulated”; in assay [10] (non-immunised (naïve) mice) it was “independent of the peptide used for in vitro stimulation”. Besides, the “IFN-γ release (PAP.135:irrel.)” value in assay [10] (ratio, splenocytes from naïve (non-immunised) mouse) came out at 1.1.
